Laboratory results: patent US20230192700A1, “PYRAZOLOPYRAZINES ACTING ON CANCERS VIA INHIBITION OF CDK12” (Bayer Aktiengesellschaft, priority 2020, published 2023)
Like-named read-outs stand apart in the source and are kept apart here.

Tests used:
CDK12/CyclinK = target: T1, CDK12/CyclinK (Homo sapiens, UniProt Q9NYV4); assay: CDK12/CycK high ATP kinase assay (TR-FRET); type: biochemical; conditions: 2 mM ATP (high ATP); median; read-out: CDK12/CyclinK, 2 mM ATP (high ATP), IC50 - [mol/l] (median)
T1 construct: His-CDK12 (aa Q696-S1082); made in house; host or cells: Hi-5 insect cells (baculovirus co-infection with CycK and yeast CAK1)
Procedure, shortened: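 Human His-tagged CDK12/CycK (about 0.75 nM) preincubated with compound 15 min, then reacted 60 min at 22 °C with 2 mM ATP and 1 µM biotinylated peptide in HEPES pH 7.5 buffer. Phospho-Ser62 c-Myc epitope detected by TR-FRET (665/620 nm ratio); data normalised to no-inhibitor and no-enzyme controls.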

[1] = system: CAL-120 human breast adenocarcinoma cells; assay: Proliferation assay CAL-120 (crystal violet); type: cell-based; conditions: CAL-120 cells, 4 days, median, read-out: Prolif-CAL-120— IC50 - [mol/l] (median)
Procedure, shortened: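 Cells seeded at 4,000/well in medium with 10% fetal calf serum, dosed after 24 h (0.01-10 micromol/L, 0.1% DMSO) and grown 4 days. Crystal violet staining read at 595 nm, normalised to zero-point plate (0%) and untreated cells (100%); IC50 by 4-parameter fit.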

T1 sequence (Q9NYV4 with tags, fused parts or gaps): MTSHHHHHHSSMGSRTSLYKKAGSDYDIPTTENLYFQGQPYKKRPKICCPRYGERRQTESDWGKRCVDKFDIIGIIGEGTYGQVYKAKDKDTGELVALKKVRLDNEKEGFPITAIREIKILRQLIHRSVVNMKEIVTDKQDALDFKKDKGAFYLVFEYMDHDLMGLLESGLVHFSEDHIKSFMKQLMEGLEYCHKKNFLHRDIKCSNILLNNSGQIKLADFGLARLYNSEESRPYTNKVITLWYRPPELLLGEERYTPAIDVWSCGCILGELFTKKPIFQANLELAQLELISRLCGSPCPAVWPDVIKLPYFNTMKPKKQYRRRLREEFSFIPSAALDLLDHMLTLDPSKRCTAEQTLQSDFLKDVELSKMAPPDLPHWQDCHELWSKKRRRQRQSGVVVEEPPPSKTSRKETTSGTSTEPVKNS
T1 sequence (O75909 with tags, fused parts or gaps partner limits assumed): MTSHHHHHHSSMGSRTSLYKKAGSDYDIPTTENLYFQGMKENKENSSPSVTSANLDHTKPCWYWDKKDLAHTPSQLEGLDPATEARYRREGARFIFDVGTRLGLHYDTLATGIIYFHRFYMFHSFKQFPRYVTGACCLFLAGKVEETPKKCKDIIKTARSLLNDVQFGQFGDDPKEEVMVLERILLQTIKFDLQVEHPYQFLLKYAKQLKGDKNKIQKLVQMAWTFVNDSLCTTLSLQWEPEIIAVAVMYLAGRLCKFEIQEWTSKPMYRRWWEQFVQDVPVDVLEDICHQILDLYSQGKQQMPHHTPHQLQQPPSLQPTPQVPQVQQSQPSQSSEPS

For `OCC1(Cn2nc(NCc3nc4ccccc4[nH]3)c3ncc(C4CC4)nc32)CCC1` [Example 74, {1-[(3-{[(1H-benzimidazol-2-yl)methyl]amino}-6-cyclopropyl-1H-pyrazolo[3,4-b]pyrazin-1-yl)methyl]cyclobutyl}methanol], which IC50 (CDK12/CyclinK) is on record?
Its IC50 is > 10 µM.

What about the IC50 ([1]; Homo sapiens, CAL-120, 96 h) of the same compound?
The IC50 was 46.7 nM.

Which IC50 (CDK12/CyclinK) does the source give for `FC1(F)CCC(n2nc(NCc3nc4ccccc4[nH]3)c3ncc(C4CC4)nc32)CC1` [Example 36, N-[(1H-benzimidazol-2-yl)methyl]-6-cyclopropyl-1-(4,4-difluorocyclohexyl)-1H-pyrazolo[3,4-b]pyrazin-3-amine] here?
The IC50 was > 20 µM.

And the IC50 ([1]; Homo sapiens, CAL-120, 96 h)?
The IC50 was 48.8 nM.

What does the source list for `CN1CCC(n2nc(NCc3nc4ccccc4[nH]3)c3ncc(C4CC4)nc32)C1` (single isomer, unassigned) [Example 79, (−) or (+)-N-[(1H-benzimidazol-2-yl)methyl]-6-cyclopropyl-1-(1-methylpyrrolidin-3-yl)-1H-pyrazolo[3,4-b]pyrazin-3-amine]?
IC50 (CDK12/CyclinK): > 20 µM; IC50 [1]: 71.4 nM

`O[C@H]1C[C@@H](n2nc(NCc3nc4ccccc4[nH]3)c3ncc(C4CC4)nc32)C1` [Example 40, cis-3-(3-{[(1H-benzimidazol-2-yl)methyl]amino}-6-cyclopropyl-1H-pyrazolo[3,4-b]pyrazin-1-yl)cyclobutan-1-ol] was tested. Which IC50 (CDK12/CyclinK) did it give?
The IC50 was > 20 µM.

What about the IC50 ([1]; Homo sapiens, CAL-120, 96 h) of the same compound?
The IC50 was 34.6 nM.

With `c1ccc2[nH]c(CNc3nn(C4CCNCC4)c4nc(C5CC5)cnc34)nc2c1` [Example 12, N-[(1H-benzimidazol-2-yl)methyl]-6-cyclopropyl-1-(piperidin-4-yl)-1H-pyrazolo[3,4-b]pyrazin-3-amine] as the compound, how does the IC50 (CDK12/CyclinK) read?
Its IC50 is > 20 µM.

And the IC50 ([1]; Homo sapiens, CAL-120, 96 h)?
Its IC50 is 6.49 nM.

For `Cc1cnc2c(NCc3nc4ccccc4[nH]3)nn(C3CCN(C)CC3)c2n1` [Example 77, N-[(1H-benzimidazol-2-yl)methyl]-6-methyl-1-(1-methylpiperidin-4-yl)-1H-pyrazolo[3,4-b]pyrazin-3-amine], which IC50 (CDK12/CyclinK) is on record?
The IC50 was > 20 µM.

And the IC50 ([1]; Homo sapiens, CAL-120, 96 h)?
Its IC50 is 1040 nM.

Which results are given for `Fc1ccc2[nH]c(CNc3nn(C4CCOCC4)c4nc(C5CC5)cnc34)nc2c1` [Example 53, 6-cyclopropyl-N-[(5-fluoro-1H-benzimidazol-2-yl)methyl]-1-(oxan-4-yl)-1H-pyrazolo[3,4-b]pyrazin-3-amine]?
IC50 (CDK12/CyclinK): > 10 µM; IC50 ([1]; Homo sapiens, CAL-120, 96 h): 19.7 nM

Which results are given for `CN(C)CCn1nc(NCc2nc3ccccc3[nH]2)c2ncc(C3CC3)nc21` [Example 68, N-[(1H-benzimidazol-2-yl)methyl]-6-cyclopropyl-1-[2-(dimethylamino)ethyl]-1H-pyrazolo[3,4-b]pyrazin-3-amine]?
IC50 (CDK12/CyclinK): > 20 µM; IC50 ([1]; Homo sapiens, CAL-120, 96 h): 266 nM

`c1ccc2[nH]c(CNc3nn(C4CCOC4)c4nc(C5CC5)cnc34)nc2c1` (single isomer, unassigned) [Example 18, (-) or (+) -N-[(1H-benzimidazol-2-yl)methyl]-6-cyclopropyl-1-[oxolan-3-yl]-1H-pyrazolo[3,4-b]pyrazin-3-amine] was tested. Which IC50 (CDK12/CyclinK) did it give?
The IC50 was > 20 µM.

What about the IC50 [1] of the same compound?
Its IC50 is 71.9 nM.

`CN1CCC(n2nc(NCc3nc4cc(SC(F)(F)F)ccc4[nH]3)c3ncc(C4CC4)nc32)CC1` [Example 27, 6-cyclopropyl-1-(1-methylpiperidin-4-yl)-N-({5-[(trifluoromethyl)sulfanyl]-1H-benzimidazol-2-yl}methyl)-1H-pyrazolo[3,4-b]pyrazin-3-amine] was tested. Which IC50 (CDK12/CyclinK) did it give?
The IC50 was 2.02 µM.

What about the IC50 ([1]; Homo sapiens, CAL-120, 96 h) of the same compound?
The IC50 was 266 nM.

How did the IC50 (CDK12/CyclinK) turn out when `CN1CCC(n2nc(NCc3nc4ccccc4[nH]3)c3ncc(C4CC4)nc32)CC1` [Example 1, N-[(1H-benzimidazol-2-yl)methyl]-6-cyclopropyl-1-(1-methylpiperidin-4-yl)-1H-pyrazolo[3,4-b]pyrazin-3-amine] was run?
The IC50 was > 20 µM.

And the IC50 ([1]; Homo sapiens, CAL-120, 96 h)?
Its IC50 is 32.8 nM.

With `OC1(Cn2nc(NCc3nc4ccccc4[nH]3)c3ncc(C4CC4)nc32)CCC1` [Example 72, 1-[(3-{[(1H-benzimidazol-2-yl)methyl]amino}-6-cyclopropyl-1H-pyrazolo[3,4-b]pyrazin-1-yl)methyl]cyclobutan-1-ol] as the compound, how does the IC50 (CDK12/CyclinK) read?
The IC50 was > 10 µM.

What about the IC50 ([1]; Homo sapiens, CAL-120, 96 h) of the same compound?
The IC50 was 60.6 nM.

`COCCCn1nc(NCc2nc3ccccc3[nH]2)c2ncc(C3CC3)nc21` [Example 61, N-[(1H-benzimidazol-2-yl)methyl]-6-cyclopropyl-1-(3-methoxypropyl)-1H-pyrazolo[3,4-b]pyrazin-3-amine] was tested. Which IC50 (CDK12/CyclinK) did it give?
The IC50 was > 20 µM.

And the IC50 ([1]; Homo sapiens, CAL-120, 96 h)?
The IC50 was 60.6 nM.

What does the source list for `CN1CCC(n2nc(NCc3nc4cc(F)c(F)cc4[nH]3)c3ncc(C4CC4)nc32)CC1` [Example 30, 6-cyclopropyl-N-[(5,6-difluoro-1H-benzimidazol-2-yl)methyl]-1-(1-methylpiperidin-4-yl)-1H-pyrazolo[3,4-b]pyrazin-3-amine]?
IC50 (CDK12/CyclinK): > 20 µM; IC50 ([1]; Homo sapiens, CAL-120, 96 h): 13.4 nM

For `OCCn1nc(NCc2nc3ccccc3[nH]2)c2ncc(C3CC3)nc21` [Example 66, 2-(3-{[(1H-benzimidazol-2-yl)methyl]amino}-6-cyclopropyl-1H-pyrazolo[3,4-b]pyrazin-1-yl)ethan-1-ol], which IC50 (CDK12/CyclinK) is on record?
The IC50 was > 20 µM.

And the IC50 ([1]; Homo sapiens, CAL-120, 96 h)?
The IC50 was 160 nM.
